Laboratory results: patent US8580577B2, “Method for detecting an analyte in a sample” (Evotec AG, priority 2002, dated 2013)
pEC50: −log10 of the molar value.

Legend:
Cyp1A1 = Cyp1A1 induction by 3-methylcholanthrene, publication of Delescluse et al.; read-out: EC50 roughly estimated from a published Northern Blot; cited from earlier work
CYP1A1 mRNA = test: Expression of cyp1A1 mRNA in HepG2 cells stimulated with 3-methylcholanthrene (homogeneous bead-based detection oligonucleotide assay); assay type: cell-based; settings: human, 24 h 3-MC, each of three plates, standard deviation 0.05 μM between plates
Description: (§1) Fully automated dual-channel confocal imaging was performed with two independent cooled CCD detectors. Excitation wavelengths were 532 nm and 633 nm, a dichroic beam splitter with 630 nm was used and emission filters were 565/50 nm and 690/40 nm. Laser power was ˜500 μW for both wavelengths, measured at the entrance of the objective. Exposure times were usually in the range of 500-1000 ms.
An image of the sample was acquired at 565 nm by the first CCD detector. This image is called the signal image. At this wavelength, the emission of the detection oligonucleotides is seen. Therefore, in principle one can see the fluorescence emission of both the unbound detection oligonucleotides as well as the detection oligonucleotides bound specifically to the analyte (and consequently via the capture oligonucleotides to the beads). […]
In addition, an image of the sample was acquired at 690 nm by the second CCD detector. […] The fluorescence of the biotinylated red oxazine dye bound to the beads can be seen as a red ring in the reference image (see FIG. 6, left picture). […] This fluorescence intensity is constant and not dependent on the mRNA analyte concentration, see FIG. 5 for illustration. […]
The analysis of the images was performed with image analysis software as follows. […] A mask of these rings corresponding to detected beads was generated from the reference image. […]

c-fos mRNA = test: Expression of c-fos mRNA in HepG2 cells stimulated with PMA (homogeneous bead-based detection oligonucleotide assay, confocal imaging); assay type: cell-based; settings: for Mean average fluorescence signal intensity/bead pixel: 1 h
Description: as §1
An image of the sample was acquired at 565 nm by the first CCD detector. This image is called the signal image. At this wavelength, the emission of the detection oligonucleotides is seen. Therefore, in principle one can see the fluorescence emission of both the unbound detection oligonucleotides as well as the detection oligonucleotides bound specifically to the analyte (and consequently via the capture oligonucleotides to the beads). To distinguish these signals from each other, the present invention teaches to minimize the emission of the unbound detection oligonucleotides by the use of complementary quencher oligonucleotides. The signal intensity on the beads is linear dependent on the analyte concentration, i.e. in the present example the mRNA concentration.
In addition, an image of the sample was acquired at 690 nm by the second CCD detector. This image is called the reference image. At this wavelength, the emission of the biotinylated red oxazine dye is seen. The fluorescence of the biotinylated red oxazine dye bound to the beads can be seen as a red ring in the reference image (see FIG. 6, left picture). This emission of the dyes bound to the beads can be distinguished from the background emission of the unbound biotinylated red oxazine dye through threshold techniques. This fluorescence intensity is constant and not dependent on the mRNA analyte concentration, see FIG. 5 for illustration. At extremely high mRNA concentrations it may become inversely related to the mRNA concentrations due to limited streptavidin binding sites, however, under physiological conditions and in the experiments presented here this was not the case.
The analysis of the images was performed with image analysis software as follows. Segmentation of the beads from the background was performed on a pixel-basis in the reference image. […] A mask of these rings corresponding to detected beads was generated from the reference image. This mask was applied to the signal image (see FIG. 6, right picture). Areas within the outer boundary of the ring were evaluated for fluorescence intensity stemming from the DO-analyte-CO complex bound to the bead. […] Such local background intensity was then subtracted from the signal intensity.
The final result was the mean fluorescence intensity/bead pixel of the signal image. In general, the intensity was averaged over all correctly detected beads of the image. The beads were usually comprised in wells of micro- or nanotiter plates and in some cases, several images were taken of each well. In this instance, the intensity was averaged over all images of one well.
HepG2 cells were seeded at a density of 2*10^6 cells in 10 ml medium/plate (corresponding to 2*10^5 cells/ml) in nine 10 cm tissue culture plates (Greiner bio-one, catalogue no. 664160) in DMEM-F12 (Gibco, catalogue no. 31331-028) supplemented with 10% FCS (Gibco, catalogue no. 10500-064). The cells were incubated for 48 h at 37° C. with 5% CO2. Then medium was changed to DMEM (Sigma, catalogue no. D 5921) supplemented with 0.1% sterile filtered HSA (Sigma, catalogue no. A 1653) and incubation was continued for 24 h at 37° C. with 5% CO2. Then the cells were incubated with PMA (Phorbol 12-myristate 13-acetate, Sigma, catalogue no. P1585) for 1 h at 37° C. and 5% CO2 to induce expression of c-fos. 500 μl of appropriate PMA dilutions in DMEM with 0.1% HSA were added, for final concentrations refer to table 4 below.
One control plate was used for cell counting, the final cell number was 1.5*10^7 cells/plate. […]

SMILES | pEC50 (Cyp1A1) | EC50 at 24 h (CYP1A1 mRNA) [nM] | average expression rate of c-fos mRNA (c-fos mRNA; 100 nM PMA, 7.2*10^4 lysed cells per well) [copies mRNA/cell] | c-fos mRNA copy number per well (c-fos mRNA; 100 nM PMA, 24 μl of lysate, from the calibration of example 1a) | pEC50 (c-fos mRNA; HepG2 cells, 1 h PMA, read-out: EC50 of increase in c-fos expression) | Mean average fluorescence signal intensity/bead pixel (c-fos mRNA; HepG2 cells, PMA 0.5 nM) | Mean average fluorescence signal intensity/bead pixel (c-fos mRNA; HepG2 cells, PMA 1 nM) | Mean average fluorescence signal intensity/bead pixel (c-fos mRNA; HepG2 cells, PMA 10 nM) | Mean average fluorescence signal intensity/bead pixel (c-fos mRNA; HepG2 cells, PMA 100 nM) | Mean average fluorescence signal intensity/bead pixel (c-fos mRNA; HepG2 cells, PMA 500 nM) | Mean average fluorescence signal intensity/bead pixel (c-fos mRNA; HepG2 cells, PMA 1000 nM)
Cc1ccc2cc3c(ccc4ccccc43)c3c2c1CC3 [3-MC, 3-methylcholanthrene] | ~6.30 | 800 |  |  |  |  |  |  |  |  | 
CCCCCCCCCCCCCC(=O)O[C@@H]1[C@@H](C)[C@@]2(O)[C@@H](C=C(CO)C[C@]3(O)C(=O)C(C)=C[C@@H]23)[C@@H]2C(C)(C)[C@]12OC(C)=O [PMA, Phorbol 12-myristate 13-acetate] |  |  | 42 | 3.03*10^6 copies mRNA/well | 6.32 | 1.51 | 1.53 | 4.84 | 14.29 | 24.44 | 30.03
